Assay results as given in patent US4281121A, “1,3,4-Thiadiazole-2-carboxylic acid derivatives, process for making the same and fungicidal and nematocidal compositions containing same” (Schering Aktiengesellschaft, priority 1978, dated 1981).
Read-outs that look alike come from different tables or passages of the source.

Tests used:
[1] = system: Venturia inaequalis; assay: Prophylactic leaf treatment of apples in open field test against Venturia inaequalis; type: in vivo; settings: 3 weeks
[2] = system: Pythium ultimum; assay: Threshold concentration test for use of the compounds against Pythium ultimum (infested soil, garden peas); type: in vivo; parameters: key to root evaluation (1-4): 4: white roots without fungous necrosis; 3: white roots, minor fungous necrosis; 2: brown roots, already more pronounced fungous necrosis; 1: heavy fungous necrosis, roots rotted; settings: for root evaluation (1-4): 3 weeks; for number of sound peas: 20 grains per dish, 3 weeks at 20-24° C.
How it was run: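 Pulverulent agents at 20% concentration mixed evenly into soil heavily infested with Pythium ultimum, then garden peas ('Wunder von Kelvedon', 20 per dish) sown at once. After three weeks at 20–24 °C in a hothouse, sound peas counted and roots scored on a 1–4 scale.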

[3] = system: Tilletia caries; assay: Treatment of oat seeds infested with Tilletia caries (spore germination); type: in vivo
[4] = system: Plasmopara viticola; assay: Prophylactic leaf treatment of grapevines in the hothouse against Plasmopara viticola; type: in vivo
Protocol: Effects of prophylactic leaf treatment of grapevines in the hothouse against Plasmopara viticola
Young grapevine plants having from 5 to 8 leaves were sprayed dripping wet with the concentrations of active agents stated in the table below. After drying of the spray deposit the leaves were sprayed with an aqueous suspension of sporangia of the fungus (about 20,000 per ml); the spraying was applied to the bottom side of the leaves. The plants were then immediately incubated in a hothouse at a temperature of 22° to 24° C. and at maximum water saturation in the atmosphere. Beginning with the second day the humidity of the air was reduced for 3 to 4 days to normal level (30 to 70% saturation) and was then maintained for another day on the level of full saturation. Subsequently, the percentage portion of the fungus infested surface of each leaf was noted and the average per treatment was calculated in order to determine the fungicidal activity. This was done on the basis of the following formula: [formula]
The active compounds were applied in the form of a 20% concentration spray powder.

[5] = system: Piricularia oryzae; type: in vivo; settings: 5 days
[6] = system: Fusarium avenaceum; assay: Threshold concentration test in case of Fusarium avenaceum (infested soil, garden peas); type: in vivo; settings: for number of sound peas: 20 grains per dish, 18 days at 20-24° C.; for root evaluation (1-4): 18 days
How it was run: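 Soil heavily infested with Fusarium avenaceum was mixed uniformly with a 20% powder formulation of active agent, then sown immediately with 20 garden pea seeds ('Wunder von Kelvedon') per dish. After 18 days in a greenhouse at 20° to 24° C., sound plants were counted and roots scored on a 1–4 scale.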

[7] = system: Helminthosporium gramineum; assay: Seed treatment in open field tests for infestation by Helminthosporium gramineum (barley); type: in vivo
Protocol: Seed treatment in open field tests for infestation by Helminthosporium gramineum
The active agents were used in the form of pulverulent compositions. After about 8 months in case of winter barley and after about 3 months in case of summer barley the infested plants were counted and the activity was calculated by the formula [formula]

[8] = system: Helminthosporium gram; settings: about 5 weeks
Protocol: Treatment of barley seeds infested with Helminthosporium gram
After emergence, the plants were subjected to illumination for 12 hours per day. After about 5 weeks the infested plants were counted and the total number of plants for each test were also counted. The active agents tested were used as pulverulent compositions.

[9] = system: Botrytis cinerea; assay: Prophylactic leaf treatment of tomato plants against Botrytis cinerea; type: in vivo; settings: concentration of 0.025 of the active agent (unit not given)
[10] = concentration of active agent 0.005 (in gram)
[11] = concentration of active agent 0.025 (in gram)
[12] = concentration of active agent 0.001 (unit not given)
[13] = concentration of active agent 0.005 (unit not given)
[14] = concentration of active agent 0.025 (unit not given)
[15] = concentration of active agent 0.1 (percentages)
[16] = summer barley, 50 g active agent/100 kg barley, about 3 months

Row | SMILES | % activity [1, 10] [%] | % activity [1, 11] [%] | root evaluation (1-4) ([2]; 20 mg/l soil) | number of sound peas ([2]; 20 mg/l soil) | root evaluation (1-4) ([2]; 40 mg/l soil) | number of sound peas ([2]; 40 mg/l soil) | root evaluation (1-4) ([2]; 80 mg/l soil) | number of sound peas ([2]; 80 mg/l soil) | % activity ([3]; 20 g active agent per 100 kg) [%] | % activity ([3]; 50 g active agent per 100 kg) [%] | % activity [4, 13] [%] | % activity [4, 14] [%] | % activity [5, 15] [%] | % activity ([3]; 10 g active agent per 100 kg) [%] | % activity ([8]; 50 g active agent per 100 kg) [%] | other results
1 | N#CC1=C(C#N)C(=O)c2cc3ccccc3cc2C1=O [2,3-dinitrilo-1,4-anthraquinone, reference compound] | 86 | 94 |  |  |  |  |  |  |  |  |  |  |  |  |  | 
2 | CCCC[S+]([O-])c1nnc(C(N)=O)s1 (centres unmarked) [5-butylsulfinyl-1,3,4-thiadiazole-2-carboxamide] |  |  | 1 | 10 | 4 | 15 | 4 | 19 | 95 | 100 | 99.8 | 100 | 93 |  |  | % activity [4, 12]: 75%
3 | CC(C)CS(=O)(=O)c1nnc(C#N)s1 [5-isobutylsulfonyl-1,3,4-thiadiazole-2-carbonitrile] |  |  |  |  |  |  |  |  | 93 | 100 | 87 | 99 | 100 |  |  | number of sound peas ([6]; 25 mg/l soil): 19; root evaluation (1-4) ([6]; 25 mg/l soil): 4; number of sound peas ([6]; 50 mg/l soil): 20; root evaluation (1-4) ([6]; 50 mg/l soil): 4; number of sound peas ([6]; 100 mg/l soil): 19; root evaluation (1-4) ([6]; 100 mg/l soil): 4; % activity [4, 12]: 79%
4 | CC(C)S(=O)(=O)c1nnc(C(=O)NCC2CCCCC2)s1 [5-isopropylsulfonyl-1,3,4-thiadiazole-2-carboxylic acid-cyclohexylmethylamide] |  |  |  |  |  |  |  |  | 92 | 97 | 92 | 97 | 98 |  |  | 
5 | CCCCNC(=O)c1nnc([S+](C)[O-])s1 (centres unmarked) [5-methylsulfinyl-1,3,4-thiadiazole-2-carboxylic acid-butylamide] | 86 | 99 | 2 | 12 | 4 | 15 | 4 | 17 | 99.8 | 100 |  | 93 |  | 99 | 100 | % activity [7, 16]: 100%; % activity ([8]; 10 g active agent per 100 kg): 67%; % activity ([8]; 20 g active agent per 100 kg): 97%
6 | CC(C)NC(=O)c1nnc([S+](C)[O-])s1 (centres unmarked) [5-methylsulfinyl-1,3,4-thiadiazole-2-carboxylic acid-isopropylamide] | 71 | 90 | 4 | 19 | 4 | 19 | 4 | 20 | 100 | 100 |  | 90 | 90 |  | 100 | % activity ([8]; 20 g active agent per 100 kg): 96%
7 | CCCNC(=O)c1nnc([S+](C)[O-])s1 (centres unmarked) [5-methylsulfinyl-1,3,4-thiadiazole-2-carboxylic acid-propylamide] | 62 | 99.7 | 4 | 14 | 4 | 15 | 4 | 15 | 100 | 100 | 75 | 99 |  | 99 | 100 | % activity [7, 16]: 97%; % activity ([8]; 10 g active agent per 100 kg): 75%; % activity ([8]; 20 g active agent per 100 kg): 98%
8 | CS(=O)(=O)c1nnc(C(=O)NC2CC2)s1 [5-methylsulfonyl-1,3,4-thiadiazole-2-carboxylic acid-cyclopropylamide] |  |  | 1 | 13 | 4 | 20 | 4 | 20 | 98 | 100 |  |  |  |  |  | % activity [9]: 75%
9 | CN(C)C(=O)c1nnc(S(C)(=O)=O)s1 [5-methylsulfonyl-1,3,4-thiadiazole-2-carboxylic acid-dimethylamide] |  |  | 4 | 18 | 4 | 20 | 4 | 18 |  |  |  |  | 98 |  | 98 | % activity ([5]; concentration of active agent 0.02 (percentages)): 91%; % activity ([7]; winter barley, 50 g active agent/100 kg barley, about 8 months): 98%; % activity ([7]; winter barley, 100 g active agent/100 kg barley, about 8 months): 100%; % activity ([8]; 20 g active agent per 100 kg): 87%
10 | CCNC(=O)c1nnc(S(C)(=O)=O)s1 [5-methylsulfonyl-1,3,4-thiadiazole-2-carboxylic acid-ethylamide] | 81 | 97 | 4 | 15 | 4 | 15 | 4 | 15 | 99.2 | 98 | 81 | 97 | 90 | 99.2 | 93 | % activity [7, 16]: 100%
11 | CC(C)NC(=O)c1nnc(S(C)(=O)=O)s1 [5-methylsulfonyl-1,3,4-thiadiazole-2-carboxylic acid-isopropylamide] | 85 | 100 | 4 | 15 | 4 | 18 | 4 | 15 | 100 | 100 | 76 | 96 | 90 | 100 | 90 | % activity [7, 16]: 100%
12 | CCCCCS(=O)(=O)c1nnc(C(N)=O)s1 [5-pentylsulfonyl-1,3,4-thiadiazole-2-carboxamide] |  |  |  |  |  |  |  |  |  | 80 |  |  |  |  |  | number of sound peas ([6]; 25 mg/l soil): 9; root evaluation (1-4) ([6]; 25 mg/l soil): 2; number of sound peas ([6]; 50 mg/l soil): 16; root evaluation (1-4) ([6]; 50 mg/l soil): 3; number of sound peas ([6]; 100 mg/l soil): 18; root evaluation (1-4) ([6]; 100 mg/l soil): 4; % activity [9]: 87%
13 | CCCS(=O)(=O)c1nnc(C(=O)N(C)C)s1 [5-propylsulfonyl-1,3,4-thiadiazole-2-carboxylic acid-dimethylamide] |  |  | 2 | 17 | 4 | 20 | 4 | 19 | 100 | 100 | 75 | 90 | 93 |  | 93 | 
14 | CCCS(=O)(=O)c1nnc(C(=O)NC)s1 [5-propylsulfonyl-1,3,4-thiadiazole-2-carboxylic acid-methylamide] |  |  | 4 | 19 | 4 | 16 | 4 | 15 | 99.5 | 100 |  |  |  | 99.5 |  | % activity [9]: 88%
